Data on two compounds can be found in patent US20110112160A1, “TABLET COMPRISING EPROSARTAN MESYLATE” (LEK PHARMACEUTICALS D.D., priority 2008, published 2011).

A short description of data set [1]: Hygroscopicity and interconversion of forms at high relative humidity. The format is physicochemical. Particulars: at RH over 60%. An excerpt: Eprosartan mesylate is hygroscopic (at RH over 60%).
Data set [2] in a line: Physical stability, form of eprosartan mesylate by X-ray diffraction (XRD). In kind it is physicochemical. The note with it: at ambient temperature and humidity. The protocol:
During the dry granulation processes using different excipients from the list above, physical stability of the eprosartan mesylate anhydrate was investigated. […] The final tablet form and placebo powder were analyzed by X-ray diffraction (XRD) pattern to confirm presence of anhydrous form of eprosartan mesylate.
Diffractograms were collected on X'Pert PRO MPD diffractometer using CuKα radiation. Data were recorded from 2 do 40°2θ; in steps of 0.033°2θ; with the integration times 50 s (routine testing) and from 4 do 20°2θ; in steps of 0.033°2θ; with the integration times 2000 s (to achieve lower LOD). The range for measurements with longer integration times was chosen according to the known diffractograms of eprosartan mesylate crystalline forms, which all have characteristic peaks in the carefully measured range between 4 and 20°2theta.

For data set [3] the following is noted: at pH 2; typically; cited from earlier work.
For data set [4] the following is noted: background art; cited from earlier work.
A further data set is described as follows: Flowability. Particulars: drug per se; with sticking on punches. In kind it is physicochemical.
The subject of another data set is intestinal epithelium. Particulars: background art; cited from earlier work.

For the compound `CCCCc1ncc(/C=C(\Cc2cccs2)C(=O)O)n1Cc1ccc(C(=O)O)cc1.CS(=O)(=O)O` [Eprosartan mesylate in anhydrous form], the interconversion of form result in data set [1] was “interconverts to eprosartan mesylate mono- and later to dihydrate”. Besides, the “physical and chemical stability” value in data set [2] was “physically and chemically stable”.

For `CCCCc1ncc(/C=C(\Cc2cccs2)C(=O)O)n1Cc1ccc(C(=O)O)cc1.CS(=O)(=O)O` [eprosartan mesylate, (E)-α-[2-n-butyl-1-[(4-carboxyphenyl)methyl]-1H-imidazol-5-yl]methylene-2-thiophenepropionic acid monomethanesulfonate], the solubility entry in data set [3] was “less than 0.1 mg/ml”. Moreover, the bioavailability in data set [4] was 13%. The flowability entry in the data set “Flowability” is “below 0.15 g/sec”. Moreover, the hygroscopicity entry in data set [1] is reported as “hygroscopic”. Moreover, in the data set on intestinal epithelium, the “permeability across the intestinal epithelium” value is recorded as “low permeability”.
